{"source": "PubChem BioAssay AID330", "about": "(DTP/NCI, 2004)", "test_system": "P388 leukemia ip, CD2F1 mice, survival T/C", "assay": "NCI In Vivo Anticancer Drug Screen. Data for tumor model P388 Leukemia (intraperitoneal) in CD2F1 (CDF1) mice", "details": "endpoint: median survival time, higher = longer survival", "procedure,_shortened": "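Mice carrying the transplanted tumor received test compound or vehicle. Survival was recorded in each group, and the value is the treated-group measurement divided by that of the vehicle-treated control group.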", "note": "Where “and” joins values, the source holds several entries; their conditions need not be identical. Equal entries are not always repeated. Inconclusive results and toxic doses are left out."}
{"smiles": "C=C1COC(=O)[C@@]12CC[C@@]1(C)[C@@H](CC[C@@H]3[C@@H]1CC[C@]1(C)C([C@H](C)CCCC(C)C)CC[C@@H]31)C2", "note": "(stereo partly drawn)", "values": [{"measurement": "T/C", "setting": "dose: 100.0 mg/kg/injection, schedule: Q01DX001 (ip), vehicle: saline with Tween-80", "result": "96 % of control"}, {"measurement": "T/C", "setting": "dose: 200.0 mg/kg/injection, schedule: Q01DX001 (ip), vehicle: saline with Tween-80", "result": "93 % of control"}, {"measurement": "T/C", "setting": "dose: 400.0 mg/kg/injection, schedule: Q01DX001 (ip), vehicle: saline with Tween-80", "result": "91 % of control"}]}
{"smiles": "CN(C)[C@@H]1C(=O)C(C(=O)NCNC(CO)(CO)CO)=C(O)[C@@]2(O)C(=O)C3=C(O)c4c(O)cccc4[C@@](C)(O)[C@H]3C[C@@H]12", "values": [{"measurement": "T/C", "setting": "dose: 25.0 mg/kg/injection, schedule: Q01DX009 (ip), vehicle: saline", "result": "100 % of control"}, {"measurement": "T/C", "setting": "dose: 50.0 mg/kg/injection, schedule: Q01DX009 (ip), vehicle: saline", "result": "95 % of control"}, {"measurement": "T/C", "setting": "dose: 100.0 mg/kg/injection, schedule: Q01DX009 (ip), vehicle: saline", "result": "100 % of control"}]}
{"smiles": "[O-][n+]1nc(Cl)nc2ccccc21", "values": [{"measurement": "T/C", "setting": "dose: 10.0 mg/kg/injection, schedule: Q01DX009 (ip), vehicle: Klucel (hydroxypropylcellulose) (HPC)", "result": "105 % of control"}, {"measurement": "T/C", "setting": "dose: 20.0 mg/kg/injection, schedule: Q01DX009 (ip), vehicle: Klucel (hydroxypropylcellulose) (HPC)", "result": "107 % of control"}]}
{"smiles": "OCC1OC(n2cnc3c(SCc4ccccn4)ncnc32)C(O)C1O", "note": "(stereo not drawn)", "values": [{"measurement": "T/C", "setting": "dose: 12.5 mg/kg/injection, schedule: Q04DX003 (ip), vehicle: saline with Tween-80", "result": "109 % of control"}, {"measurement": "T/C", "setting": "dose: 25.0 mg/kg/injection, schedule: Q04DX003 (ip), vehicle: saline with Tween-80", "result": "96 % of control"}, {"measurement": "T/C", "setting": "dose: 50.0 mg/kg/injection, schedule: Q04DX003 (ip), vehicle: saline with Tween-80", "result": "99 % of control"}, {"measurement": "T/C", "setting": "dose: 100.0 mg/kg/injection, schedule: Q04DX003 (ip), vehicle: saline with Tween-80", "result": "96 % of control"}]}
{"smiles": "Cc1ccc(S(=O)(=O)N/N=C2\\CC/C(=N\\NS(=O)(=O)c3ccc(C)cc3)[C@@H]3CC=CC[C@H]23)cc1", "values": [{"measurement": "T/C", "setting": "dose: 50.0 mg/kg/injection, schedule: Q01DX005 (ip), vehicle: saline with Tween-80", "result": "92 % of control"}, {"measurement": "T/C", "setting": "dose: 100.0 mg/kg/injection, schedule: Q01DX005 (ip), vehicle: saline with Tween-80", "result": "92 % of control"}, {"measurement": "T/C", "setting": "dose: 200.0 mg/kg/injection, schedule: Q01DX005 (ip), vehicle: saline with Tween-80", "result": "89 % of control"}]}
{"smiles": "O=C(O)C(Cc1ccccc1N(CCO)CCO)N1C(=O)c2ccccc2C1=O", "note": "(stereo not drawn)", "values": [{"measurement": "T/C", "setting": "dose: 25.0 mg/kg/injection, schedule: Q01DX009 (ip), vehicle: saline with Tween-80", "result": "99 % of control"}, {"measurement": "T/C", "setting": "dose: 50.0 mg/kg/injection, schedule: Q01DX009 (ip), vehicle: saline with Tween-80", "result": "93 % of control"}, {"measurement": "T/C", "setting": "dose: 100.0 mg/kg/injection, schedule: Q01DX009 (ip), vehicle: saline with Tween-80", "result": "93 % of control"}, {"measurement": "T/C", "setting": "dose: 200.0 mg/kg/injection, schedule: Q01DX009 (ip), vehicle: saline with Tween-80", "result": "96 % of control"}]}
{"smiles": "O=C(O)CCCCC1CCSS1", "note": "(stereo not drawn)", "values": [{"measurement": "T/C", "setting": "dose: 15.63 mg/kg/injection, schedule: Q01DX005 (ip), vehicle: Klucel (hydroxypropylcellulose) (HPC)", "result": "103 % of control"}, {"measurement": "T/C", "setting": "dose: 31.25 mg/kg/injection, schedule: Q01DX005 (ip), vehicle: Klucel (hydroxypropylcellulose) (HPC)", "result": "103 % of control"}, {"measurement": "T/C", "setting": "dose: 62.5 mg/kg/injection, schedule: Q01DX005 (ip), vehicle: Klucel (hydroxypropylcellulose) (HPC)", "result": "94 % of control"}, {"measurement": "T/C", "setting": "dose: 125.0 mg/kg/injection, schedule: Q01DX005 (ip), vehicle: Klucel (hydroxypropylcellulose) (HPC)", "result": "97 % of control"}]}
{"smiles": "Cc1nc(-c2ccccc2)nc2c1nc(Cc1ccccc1)n2Nc1ccccc1", "values": [{"measurement": "T/C", "setting": "dose: 100.0 mg/kg/injection, schedule: Q01DX001 (ip), vehicle: Klucel (hydroxypropylcellulose) (HPC)", "result": "87 % of control"}, {"measurement": "T/C", "setting": "dose: 200.0 mg/kg/injection, schedule: Q01DX001 (ip), vehicle: Klucel (hydroxypropylcellulose) (HPC)", "result": "91 % of control"}, {"measurement": "T/C", "setting": "dose: 400.0 mg/kg/injection, schedule: Q01DX001 (ip), vehicle: Klucel (hydroxypropylcellulose) (HPC)", "result": "87 % of control"}]}
{"smiles": "Nc1nc(Cc2ccccc2)cc(-c2cc(Cc3ccccc3)nc(N)n2)n1", "values": [{"measurement": "T/C", "setting": "dose: 60.0 mg/kg/injection, schedule: Q01DX005 (ip), vehicle: Klucel (hydroxypropylcellulose) (HPC)", "result": "90 % of control"}, {"measurement": "T/C", "setting": "dose: 120.0 mg/kg/injection, schedule: Q01DX005 (ip), vehicle: Klucel (hydroxypropylcellulose) (HPC)", "result": "95 % of control"}, {"measurement": "T/C", "setting": "dose: 240.0 mg/kg/injection, schedule: Q01DX005 (ip), vehicle: Klucel (hydroxypropylcellulose) (HPC)", "result": "97 % of control"}]}
{"smiles": "O=C1c2cccc3cc([N+](=O)[O-])cc(c23)C(=O)N1CCNCCNCCNCCN1C(=O)c2cccc3cc([N+](=O)[O-])cc(c23)C1=O", "values": [{"measurement": "T/C", "setting": "dose: 5.0 mg/kg/injection, schedule: Q04DX002 (ip), vehicle: saline with Tween-80", "result": "107 % of control and 124 % of control"}, {"measurement": "T/C", "setting": "dose: 10.0 mg/kg/injection, schedule: Q04DX002 (ip), vehicle: saline with Tween-80", "result": "122 % of control"}, {"measurement": "T/C", "setting": "dose: 80.0 mg/kg/injection, schedule: Q04DX002 (ip), vehicle: saline with Tween-80", "result": "122 % of control"}]}
{"smiles": "CCCN=C(N)c1ccc(N=C(N)c2ccc(N=C(N)c3ccc(C(N)=NCCC)cc3)cc2)cc1", "values": [{"measurement": "T/C", "setting": "dose: 0.08 mg/kg/injection, schedule: Q01DX009 (ip), vehicle: saline", "result": "100 % of control"}, {"measurement": "T/C", "setting": "dose: 0.15 mg/kg/injection, schedule: Q01DX009 (ip), vehicle: saline", "result": "100 % of control"}, {"measurement": "T/C", "setting": "dose: 0.3 mg/kg/injection, schedule: Q01DX009 (ip), vehicle: saline", "result": "110 % of control"}, {"measurement": "T/C", "setting": "dose: 1.25 mg/kg/injection, schedule: Q01DX009 (ip), vehicle: saline", "result": "154 % of control"}, {"measurement": "T/C", "setting": "dose: 2.5 mg/kg/injection, schedule: Q01DX009 (ip), vehicle: saline", "result": "118 % of control"}, {"measurement": "T/C", "setting": "dose: 5.0 mg/kg/injection, schedule: Q04DX003 (ip), vehicle: saline with Tween-80", "result": "95 % of control"}, {"measurement": "T/C", "setting": "dose: 10.0 mg/kg/injection, schedule: Q01DX009 (ip), vehicle: saline", "result": "150 % of control"}, {"measurement": "T/C", "setting": "dose: 10.0 mg/kg/injection, schedule: Q04DX003 (ip), vehicle: saline with Tween-80", "result": "100 % of control"}, {"measurement": "T/C", "setting": "dose: 15.0 mg/kg/injection, schedule: Q01DX009 (ip), vehicle: saline", "result": "172 % of control"}, {"measurement": "T/C", "setting": "dose: 20.0 mg/kg/injection, schedule: Q01DX009 (ip), vehicle: saline with Tween-80", "result": "200 % of control"}, {"measurement": "T/C", "setting": "dose: 20.0 mg/kg/injection, schedule: Q04DX003 (ip), vehicle: saline with Tween-80", "result": "100 % of control"}]}
